# Reference: ChEMBL document CHEMBL1201862, “PubChem BioAssay data set” (2004)
# Calls of active or inactive are those of the source.
# Key:
# [1] = target: T1, 1-phosphatidylinositol 4,5-bisphosphate phosphodiesterase gamma-1 (Homo sapiens, UniProt P19174); assay: Counterscreen for inhibitors of phospholipase C isozymes (PLC-B3): Fluorescence-based biochemical high throughput dose response assay to identify inhibitors of phospholipase C isozymes (PLC-gamma1).
# T1 sequence (P19174 whole entry): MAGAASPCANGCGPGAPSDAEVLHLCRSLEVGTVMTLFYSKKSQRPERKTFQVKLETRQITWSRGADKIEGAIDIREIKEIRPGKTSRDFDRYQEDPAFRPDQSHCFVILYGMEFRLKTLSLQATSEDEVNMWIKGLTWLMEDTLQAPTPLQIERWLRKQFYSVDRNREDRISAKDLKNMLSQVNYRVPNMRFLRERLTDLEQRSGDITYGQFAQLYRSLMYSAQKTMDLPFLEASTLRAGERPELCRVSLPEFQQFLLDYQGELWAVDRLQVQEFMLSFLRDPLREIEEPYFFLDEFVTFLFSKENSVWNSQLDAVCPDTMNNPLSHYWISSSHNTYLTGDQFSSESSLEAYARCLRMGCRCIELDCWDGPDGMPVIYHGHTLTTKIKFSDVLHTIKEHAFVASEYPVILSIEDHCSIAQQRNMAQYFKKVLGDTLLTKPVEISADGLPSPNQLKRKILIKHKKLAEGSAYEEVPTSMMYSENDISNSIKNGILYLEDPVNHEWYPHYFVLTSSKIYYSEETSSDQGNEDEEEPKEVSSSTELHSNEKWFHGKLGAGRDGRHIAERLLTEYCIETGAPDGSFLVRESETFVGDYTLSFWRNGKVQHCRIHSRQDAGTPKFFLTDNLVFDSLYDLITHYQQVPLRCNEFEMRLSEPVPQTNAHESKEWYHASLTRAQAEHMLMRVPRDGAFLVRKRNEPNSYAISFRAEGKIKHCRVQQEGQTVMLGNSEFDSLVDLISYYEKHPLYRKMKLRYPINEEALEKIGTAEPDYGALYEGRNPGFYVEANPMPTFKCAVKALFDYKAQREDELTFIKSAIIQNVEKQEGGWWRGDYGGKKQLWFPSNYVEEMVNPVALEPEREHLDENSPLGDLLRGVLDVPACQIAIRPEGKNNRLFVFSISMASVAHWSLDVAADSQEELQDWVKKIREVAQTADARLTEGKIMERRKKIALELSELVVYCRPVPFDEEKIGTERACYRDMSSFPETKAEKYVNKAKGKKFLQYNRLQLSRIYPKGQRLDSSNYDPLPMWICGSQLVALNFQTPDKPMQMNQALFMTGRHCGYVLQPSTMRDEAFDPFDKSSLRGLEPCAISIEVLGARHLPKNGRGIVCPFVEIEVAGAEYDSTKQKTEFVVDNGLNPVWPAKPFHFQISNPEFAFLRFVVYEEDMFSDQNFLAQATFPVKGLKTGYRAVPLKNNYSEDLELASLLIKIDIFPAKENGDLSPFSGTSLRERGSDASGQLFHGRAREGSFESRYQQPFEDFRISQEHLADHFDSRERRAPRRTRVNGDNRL
# [2] = target: T2, 1-phosphatidylinositol 4,5-bisphosphate phosphodiesterase beta-3 (Homo sapiens, UniProt Q01970); assay: Fluorescence-based biochemical high throughput dose response assay to identify inhibitors of phospholipase C isozymes (PLC-B3).
# T2 sequence (Q01970 whole entry): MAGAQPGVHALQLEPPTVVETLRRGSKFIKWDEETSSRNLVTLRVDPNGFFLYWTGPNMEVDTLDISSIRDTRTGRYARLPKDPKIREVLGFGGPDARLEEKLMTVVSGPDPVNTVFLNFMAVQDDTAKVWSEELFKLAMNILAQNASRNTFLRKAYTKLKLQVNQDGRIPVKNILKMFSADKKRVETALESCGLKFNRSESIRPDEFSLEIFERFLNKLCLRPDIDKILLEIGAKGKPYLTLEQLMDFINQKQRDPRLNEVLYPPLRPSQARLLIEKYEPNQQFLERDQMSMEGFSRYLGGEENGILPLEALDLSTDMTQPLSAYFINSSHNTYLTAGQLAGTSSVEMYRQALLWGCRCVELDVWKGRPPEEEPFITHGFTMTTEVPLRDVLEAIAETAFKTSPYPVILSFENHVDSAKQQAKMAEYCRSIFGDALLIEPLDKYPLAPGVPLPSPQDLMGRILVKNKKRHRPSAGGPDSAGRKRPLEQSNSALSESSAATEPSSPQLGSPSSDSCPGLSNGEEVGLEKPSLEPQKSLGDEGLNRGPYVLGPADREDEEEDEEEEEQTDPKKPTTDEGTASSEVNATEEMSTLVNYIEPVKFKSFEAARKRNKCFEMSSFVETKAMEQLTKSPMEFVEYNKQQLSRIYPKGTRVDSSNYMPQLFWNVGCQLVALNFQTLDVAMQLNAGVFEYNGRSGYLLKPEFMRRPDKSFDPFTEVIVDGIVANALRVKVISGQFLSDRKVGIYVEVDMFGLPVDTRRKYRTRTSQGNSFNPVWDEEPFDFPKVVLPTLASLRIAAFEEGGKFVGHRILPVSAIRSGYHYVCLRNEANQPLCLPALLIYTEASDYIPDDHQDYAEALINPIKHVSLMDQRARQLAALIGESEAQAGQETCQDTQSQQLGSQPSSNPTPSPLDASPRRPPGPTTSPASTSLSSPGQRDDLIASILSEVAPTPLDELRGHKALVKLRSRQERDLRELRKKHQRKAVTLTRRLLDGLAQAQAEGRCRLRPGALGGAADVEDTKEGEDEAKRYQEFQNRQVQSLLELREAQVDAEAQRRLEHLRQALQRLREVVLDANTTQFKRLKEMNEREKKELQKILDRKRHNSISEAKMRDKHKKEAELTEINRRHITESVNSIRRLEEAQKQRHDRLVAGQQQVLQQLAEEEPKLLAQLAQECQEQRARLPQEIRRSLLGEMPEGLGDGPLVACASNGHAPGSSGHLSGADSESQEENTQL
# [3] = NIH-3T3 fibroblast cytotoxicity, dose response, cytotoxicity control, cell-based, fluorescence, Alamar Blue, secondary assay (AID 2327); format: functional;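 further: NIH-3T3 mouse fibroblasts cultured with fluconazole at 8 µg/mL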
# [4] = inhibitors of firefly luciferase expression or activity, dose response, H4 neuroglioma cells, luminescence (AID 1990); format: functional, cell-based
# [5] = Luminescence Cell-Based Dose Response HTS to Identify Inhibitors of 5'UTR Stem-Loop Driven Prion Protein mRNA Translation in H4 Neuroglioblastoma Cells. [Related pubchem assays: 1827 (Project Summary), 1813 (Primary HTS)]; format: functional
# [6] = inhibitors of SNCA 5'UTR-driven reporter translation, confirmation, H4 neuroglioma cells, luminescence (AID 1988); format: functional, cell-based
# [7] = C. albicans growth with fluconazole, confirmation, fluorescence, retest (AID 2467); format: functional, cell-based
# [8] = target: Heat shock protein HSP 90-alpha (Homo sapiens, UniProt P07900); format: functional, organism-based
# [9] = test system: INS1; assay: beta cell apoptosis inhibitors, cytokine rescue, dose response, luminescence, retest (AID 449756); format: functional, cell-based; settings: Rattus norvegicus;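 further: cell death triggered by IL-1 beta plus TNF-alpha plus IFN-gamma mixture; protective hits raise ATP signal compared with cytokine alone wells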
# [10] = ADAM10 inhibitors, peptide cleavage, dose response, biochemical, QFRET (AID 743254);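 further: ADAM10 enzyme with the DM2 quenched FRET peptide as substrate; EDANS fluorescence gain as the protease cuts the substrate; inhibitor potency against ADAM10 proteolytic activity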
# [11] = target: Disintegrin and metalloproteinase domain-containing protein 17 (Homo sapiens, UniProt P78536); assay: ADAM17 protease inhibitors, dose response, counter-screen for ADAM10 exosite inhibitor project, biochemical, quenched FRET substrate (AID 743253)
# Disintegrin and metalloproteinase domain-containing protein 17, sequence (P78536 whole entry, the tested form may be a part): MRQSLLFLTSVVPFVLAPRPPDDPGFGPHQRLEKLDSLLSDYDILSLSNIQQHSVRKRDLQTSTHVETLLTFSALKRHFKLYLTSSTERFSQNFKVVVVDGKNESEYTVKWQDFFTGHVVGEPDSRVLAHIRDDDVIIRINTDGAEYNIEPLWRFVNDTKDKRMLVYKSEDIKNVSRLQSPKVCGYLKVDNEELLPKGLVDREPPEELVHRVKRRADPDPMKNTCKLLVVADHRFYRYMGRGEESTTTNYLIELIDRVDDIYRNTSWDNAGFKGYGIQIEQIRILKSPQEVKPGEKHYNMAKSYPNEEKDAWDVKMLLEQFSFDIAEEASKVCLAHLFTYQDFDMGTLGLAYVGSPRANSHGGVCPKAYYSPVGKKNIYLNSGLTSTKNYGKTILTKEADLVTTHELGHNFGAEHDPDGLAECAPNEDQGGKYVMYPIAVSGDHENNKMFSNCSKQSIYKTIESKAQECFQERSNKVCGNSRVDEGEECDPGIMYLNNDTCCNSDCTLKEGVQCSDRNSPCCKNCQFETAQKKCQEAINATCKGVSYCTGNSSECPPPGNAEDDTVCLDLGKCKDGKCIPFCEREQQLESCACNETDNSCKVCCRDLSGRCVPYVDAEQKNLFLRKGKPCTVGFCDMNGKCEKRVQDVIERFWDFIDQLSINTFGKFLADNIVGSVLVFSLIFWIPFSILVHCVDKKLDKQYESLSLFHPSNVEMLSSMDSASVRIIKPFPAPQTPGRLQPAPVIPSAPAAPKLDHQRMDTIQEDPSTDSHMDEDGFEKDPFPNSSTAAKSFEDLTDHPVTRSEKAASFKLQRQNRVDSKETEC
# [12] = target: Paired box protein Pax-8 (Homo sapiens, UniProt Q06710); assay: inhibitors of PAX8-driven TPO luciferase reporter, dose response, RMG-I cells, cherry-pick (AID 687027); format: functional, cell-based;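 further: luciferase reporter driven by Pax8 target thyroperoxidase promoter measured by SteadyGlo luminescence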
# Paired box protein Pax-8, sequence (Q06710 whole entry): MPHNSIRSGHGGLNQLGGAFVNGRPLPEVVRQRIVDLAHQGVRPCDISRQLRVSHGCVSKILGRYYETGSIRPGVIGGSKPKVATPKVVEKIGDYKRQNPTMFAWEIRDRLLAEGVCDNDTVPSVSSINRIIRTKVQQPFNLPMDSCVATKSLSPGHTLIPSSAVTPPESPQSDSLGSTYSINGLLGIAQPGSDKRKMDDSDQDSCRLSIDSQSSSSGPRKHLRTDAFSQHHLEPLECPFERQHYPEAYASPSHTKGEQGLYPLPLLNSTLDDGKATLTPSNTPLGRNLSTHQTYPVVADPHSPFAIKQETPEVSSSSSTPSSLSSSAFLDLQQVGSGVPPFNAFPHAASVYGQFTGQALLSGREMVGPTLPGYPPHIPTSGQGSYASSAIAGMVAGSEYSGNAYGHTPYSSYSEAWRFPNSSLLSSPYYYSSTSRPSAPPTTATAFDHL
# [13] = target: Peroxisome proliferator-activated receptor gamma/Nuclear receptor coactivator 1 (Homo sapiens, UniProt P37231); assay: (§1) TR-FRET dose response biochemical High Throughput Screening assay for agonists of the steroid receptor coactivator 1 (SRC-1) recruitment by the peroxisome proliferator-activated receptor gamma (PPAR gamma): non-selective agonists. [Related pubchem assays (depositor defined):AID1300, AID1808, AID504735, AID631]; format: protein assay
# [14] = target: Peroxisome proliferator-activated receptor gamma/Nuclear receptor coactivator 3 (Homo sapiens, UniProt P37231); assay: as §1, with “3 (SRC-3)” for “1 (SRC-1)”, “assays: 1301 (Confirmation screen.), 1048 (Primary screen.)]” for “assays (depositor defined):AID1300, AID1808, AID504735, AID631]”; format: functional
# Peroxisome proliferator-activated receptor gamma/Nuclear receptor coactivator 3, sequence (P37231 whole entry): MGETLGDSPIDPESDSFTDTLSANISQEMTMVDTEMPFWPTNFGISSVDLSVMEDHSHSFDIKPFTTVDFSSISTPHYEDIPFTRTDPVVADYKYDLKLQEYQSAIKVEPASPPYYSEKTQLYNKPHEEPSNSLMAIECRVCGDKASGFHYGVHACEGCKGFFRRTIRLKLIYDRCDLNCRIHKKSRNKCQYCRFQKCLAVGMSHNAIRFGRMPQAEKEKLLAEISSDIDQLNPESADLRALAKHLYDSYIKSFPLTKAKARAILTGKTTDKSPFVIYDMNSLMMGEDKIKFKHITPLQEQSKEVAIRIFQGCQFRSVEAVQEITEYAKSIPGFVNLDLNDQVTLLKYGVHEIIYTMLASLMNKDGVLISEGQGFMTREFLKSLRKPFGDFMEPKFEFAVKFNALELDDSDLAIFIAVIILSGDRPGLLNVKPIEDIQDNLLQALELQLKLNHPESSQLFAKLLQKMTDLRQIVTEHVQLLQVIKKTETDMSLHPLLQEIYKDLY
# Peroxisome proliferator-activated receptor gamma/Nuclear receptor coactivator 3, sequence (Q9Y6Q9 whole entry, further chain): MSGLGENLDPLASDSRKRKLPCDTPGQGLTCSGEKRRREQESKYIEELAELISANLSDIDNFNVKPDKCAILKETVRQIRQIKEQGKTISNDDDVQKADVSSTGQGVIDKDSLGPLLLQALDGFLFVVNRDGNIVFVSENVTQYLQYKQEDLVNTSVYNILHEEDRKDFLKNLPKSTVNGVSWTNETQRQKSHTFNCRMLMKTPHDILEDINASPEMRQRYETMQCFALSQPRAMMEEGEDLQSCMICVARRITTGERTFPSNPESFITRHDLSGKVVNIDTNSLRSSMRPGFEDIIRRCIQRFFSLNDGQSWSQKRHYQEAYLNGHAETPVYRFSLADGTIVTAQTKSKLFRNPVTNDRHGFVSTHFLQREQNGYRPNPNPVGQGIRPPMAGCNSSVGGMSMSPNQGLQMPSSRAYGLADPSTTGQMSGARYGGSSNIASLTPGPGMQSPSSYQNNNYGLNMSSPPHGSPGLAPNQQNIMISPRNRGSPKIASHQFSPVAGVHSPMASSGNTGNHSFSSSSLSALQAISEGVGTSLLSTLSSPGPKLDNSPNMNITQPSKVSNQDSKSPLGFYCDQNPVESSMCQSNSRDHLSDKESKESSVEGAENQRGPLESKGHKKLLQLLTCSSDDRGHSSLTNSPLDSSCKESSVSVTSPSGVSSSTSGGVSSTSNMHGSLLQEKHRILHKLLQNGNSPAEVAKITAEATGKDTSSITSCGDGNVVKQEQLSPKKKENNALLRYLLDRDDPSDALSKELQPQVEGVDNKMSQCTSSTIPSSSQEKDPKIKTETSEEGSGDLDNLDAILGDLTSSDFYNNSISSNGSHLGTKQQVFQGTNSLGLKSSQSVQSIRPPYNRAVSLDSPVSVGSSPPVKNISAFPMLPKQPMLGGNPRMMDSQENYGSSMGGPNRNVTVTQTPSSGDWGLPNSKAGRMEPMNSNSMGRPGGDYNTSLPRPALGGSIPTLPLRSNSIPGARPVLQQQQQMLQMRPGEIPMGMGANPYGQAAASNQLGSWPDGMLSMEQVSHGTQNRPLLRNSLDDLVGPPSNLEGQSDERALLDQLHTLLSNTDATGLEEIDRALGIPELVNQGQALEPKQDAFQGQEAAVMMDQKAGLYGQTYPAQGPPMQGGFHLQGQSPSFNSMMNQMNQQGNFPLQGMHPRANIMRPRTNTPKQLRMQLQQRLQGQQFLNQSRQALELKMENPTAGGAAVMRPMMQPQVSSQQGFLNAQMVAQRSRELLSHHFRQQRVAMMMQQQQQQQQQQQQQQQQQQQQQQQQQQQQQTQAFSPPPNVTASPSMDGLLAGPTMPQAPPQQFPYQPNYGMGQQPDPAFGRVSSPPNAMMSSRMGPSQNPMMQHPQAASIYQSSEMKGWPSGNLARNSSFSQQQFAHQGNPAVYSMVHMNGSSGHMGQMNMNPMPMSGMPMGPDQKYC
# [15] = target: Peroxisome proliferator-activated receptor gamma/Nuclear receptor coactivator 2 (Homo sapiens, UniProt P37231); assay: TR-FRET dose response biochemical High Throughput Screening assay for agonists of the steroid receptor coactivator 2 (SRC-2) recruitment by the peroxisome proliferator-activated receptor gamma (PPAR gamma): non-selective agonists. [Related pubchem assays: 1297, 1032 ]; format: functional
structure (smiles),measurement,setting,value
NS(=O)(=O)c1ccc(N/N=C/c2ccc(O)cc2O)c([N+](=O)[O-])c1,IC50,[1],> 123 µM (inactive)
same,IC50,[2],> 123 µM (inactive)
CCN(C(=O)COC(=O)c1ccc(C=O)cc1)c1c(N)n(Cc2ccccc2)c(=O)[nH]c1=O,IC50,[1],> 122 µM (inactive)
same,IC50,[2],> 122 µM (inactive)
CCOc1ccc(C(Nc2cccnc2)c2cc(Cl)c3cccnc3c2O)cc1 (stereo unspecified),EC50,[3],7.98 µM (inconclusive)
same,EC50,[4],12.1 µM (active)
same,EC50,[5],13.7 µM (active)
same,EC50,[6],> 120 µM (not active)
same,EC50,[7],0.348 µM (active)
same,AC50,[8],2.68 µM (active)
same,AC50,[9],3.6 µM (active)
same,IC50,[10],5.53 µM (active)
same,IC50,[11],9.11 µM (active)
C=CCC[C@@H](Cc1ccc(F)cc1)C(=O)OC[C@@H](Cc1c[nH]c2ccccc12)NC(=O)[C@H](CC=C)CC(=O)N(CCO)Cc1ccccc1,AC50,[12],10.9 µM (active)
same,IC50,[10],15.4 µM (inactive)
same,IC50,[11],> 69.5 µM (inactive)
COc1ccc(NC(C)C(=O)N/N=C/c2ccccc2OCc2cccc(Br)c2)cc1 (stereo unspecified),EC50,[13],> 79.4 µM (inactive)
same,EC50,[14],> 79.4 µM (not active)
same,EC50,[15],> 79.4 µM (not active)
same,IC50,[10],> 69.5 µM (inactive)
same,IC50,[11],> 69.5 µM (inactive)
